The compounds below were run against T1, CFTR (F508del/MF-HBE cells) (Homo sapiens, UniProt P13569, DEL508-508) (assay: Ussing chamber assay of CFTR-mediated short-circuit currents (potentiator identification)). Conditions: CFTR-mediated Isc, 18-24 h incubation at 37° C. with 10 μM (14S)-8-[3-(2-{dispiro[2.0.2.1]heptan-7-yl}ethoxy)-1H-pyrazol-1-yl]-... corrector, 20% human serum.
T1 construct: human bronchial epithelial (HBE) cells derived from CF subjects heterozygous for F508del and a minimal function CFTR mutation (F508del/MF-HBE); endogenous in cells; host or cells: primary human bronchial epithelial (HBE) cells from CF subjects, genotype F508del/minimal function
T1 sequence (P13569 with tags, fused parts or gaps DEL508-508): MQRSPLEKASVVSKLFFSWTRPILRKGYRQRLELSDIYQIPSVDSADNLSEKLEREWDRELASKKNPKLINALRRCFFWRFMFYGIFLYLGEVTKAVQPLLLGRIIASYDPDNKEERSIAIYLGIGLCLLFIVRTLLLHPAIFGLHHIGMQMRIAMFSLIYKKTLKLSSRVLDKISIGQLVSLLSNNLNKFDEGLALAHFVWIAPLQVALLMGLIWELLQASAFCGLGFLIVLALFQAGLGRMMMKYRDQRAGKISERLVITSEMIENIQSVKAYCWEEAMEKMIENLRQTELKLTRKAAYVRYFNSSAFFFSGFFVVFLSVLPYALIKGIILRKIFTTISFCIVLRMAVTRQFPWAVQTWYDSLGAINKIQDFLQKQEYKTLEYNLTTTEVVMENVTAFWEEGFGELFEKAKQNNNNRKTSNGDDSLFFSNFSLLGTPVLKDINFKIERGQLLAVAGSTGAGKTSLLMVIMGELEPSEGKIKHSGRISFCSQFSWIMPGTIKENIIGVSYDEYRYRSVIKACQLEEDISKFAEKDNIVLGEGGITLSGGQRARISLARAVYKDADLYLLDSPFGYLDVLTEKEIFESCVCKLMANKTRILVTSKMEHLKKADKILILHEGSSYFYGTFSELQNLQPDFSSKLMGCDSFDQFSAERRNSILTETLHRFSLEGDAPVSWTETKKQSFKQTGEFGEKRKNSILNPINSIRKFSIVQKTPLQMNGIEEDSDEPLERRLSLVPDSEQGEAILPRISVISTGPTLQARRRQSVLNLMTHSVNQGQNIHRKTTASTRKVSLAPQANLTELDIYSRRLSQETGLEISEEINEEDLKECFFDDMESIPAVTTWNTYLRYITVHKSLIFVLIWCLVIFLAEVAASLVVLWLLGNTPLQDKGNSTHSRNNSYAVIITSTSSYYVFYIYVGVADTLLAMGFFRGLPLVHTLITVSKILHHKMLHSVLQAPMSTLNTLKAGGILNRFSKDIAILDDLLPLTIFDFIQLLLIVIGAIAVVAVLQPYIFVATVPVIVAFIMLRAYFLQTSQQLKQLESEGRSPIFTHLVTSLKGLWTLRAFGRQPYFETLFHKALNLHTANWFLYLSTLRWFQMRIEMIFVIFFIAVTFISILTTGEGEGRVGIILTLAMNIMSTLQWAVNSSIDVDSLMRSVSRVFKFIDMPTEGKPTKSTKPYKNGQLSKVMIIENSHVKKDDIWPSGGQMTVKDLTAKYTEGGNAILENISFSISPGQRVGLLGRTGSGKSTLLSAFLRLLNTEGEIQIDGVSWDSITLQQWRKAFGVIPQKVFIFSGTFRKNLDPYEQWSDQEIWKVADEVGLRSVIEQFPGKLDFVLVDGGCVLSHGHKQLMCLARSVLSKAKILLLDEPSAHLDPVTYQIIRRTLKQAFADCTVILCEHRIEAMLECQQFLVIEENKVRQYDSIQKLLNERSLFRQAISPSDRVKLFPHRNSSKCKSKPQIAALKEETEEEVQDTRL
Type: cell-based
Procedure: Ussing Chamber Assay of CFTR-Mediated Short-Circuit Currents
Ussing chamber experiments were performed using human bronchial epithelial (HBE) cells derived from CF subjects heterozygous for F508del and a minimal function CFTR mutation (F508del/MF-HBE) and cultured as previously described (Neuberger T, Burton B, Clark H, Van Goor F Methods Mol Biol 2011:741:39-54). After four days the apical media was removed, and the cells were grown at an air liquid interface for >14 days prior to use.
To isolate the CFTR-mediated short-circuit (Isc) current, F508del/MF-HBE grown on Costar® Snapwell™ cell culture inserts were mounted in an Ussing chamber and the transepithelial ISC was measured under voltage-clamp recording conditions (Vhold=0 mV) at 37° C. The basolateral solution contained (in mM) 145 NaCl, 0.83 K2HPO4, 3.3 KH2PO4, 1.2 MgCl2, 1.2 CaCl2, 10 Glucose, 10 HEPES (pH adjusted to 7.4 with NaOH) and the apical solution contained (in mM) 145 NaGluconate, 1.2 MgCl2, 1.2 CaCl2, 10 glucose, 10 HEPES (pH adjusted to 7.4 with NaOH) and 30 μM amiloride to block the epithelial sodium channel. Forskolin (20 μM) was added to the apical surface to activate CFTR, followed by apical addition of a CFTR inhibitor cocktail consisting of BPO, GlyH-101 and CFTR inhibitor 172 (each at 20 μM final assay concentration) to specifically isolate CFTR currents. The CFTR-mediated Isc (μA/cm^2) for each condition was determined from the peak forskolin response to the steady-state current following inhibition.
Identification of Potentiator Compounds
The activity of the CFTR potentiator compounds on the CFTR-mediated Isc was determined in Ussing chamber studies as described above. The F508del/MF-HBE cell cultures were incubated with the potentiator compounds at a range of concentrations in combination with 10 μM (14S)-8-[3-(2-{dispiro[2.0.2.1]heptan-7-yl}ethoxy)-1H-pyrazol-1-yl]-12,12-dimethyl-2λ^6-thia-3,9,11,18,23-pentaazatetracyclo[17.3.1.111,14.05,10]tetracosa-1(22),5,7,9,19(23),20-hexaene-2,2,4-trione for 18-24 hours at 37° C. and in the presence of 20% human serum. The concentration of potentiator compounds and (14S)-8-[3-(2-{dispiro[2.0.2.1]heptan-7-yl}ethoxy)-1H-pyrazol-1-yl]-12,12-dimethyl-2λ^6-thia-3,9,11,18,23-pentaazatetracyclo[17.3.1.111,14.05,10]tetracosa-1(22),5,7,9,19(23),20-hexaene-2,2,4-trione used during the 18-24 hours incubations was kept constant throughout the Ussing chamber measurement of the CFTR-mediated Isc to ensure compounds were present throughout the entire experiment. The efficacy and potency of the putative F508del potentiators was compared to that of the known Vertex potentiator, ivacaftor (N-[2,4-bis(1,1-dimethylethyl)-5-hydroxyphenyl]-1,4-dihydro-4-oxoquinoline-3-carboxamide).
With Nc1cc(C(F)(F)F)c2nc1-c1nnc(o1)C(O)(C(F)(F)F)CCCCc1cccc(c1)O2 (single isomer, unassigned) [Compound 28, 20-amino-6,18-bis(trifluoromethyl)-16,23-dioxa-3,4,21-triazatetracyclo[15.3.1.12,5.111,15]tricosa-1(21),2,4,11(22),12,14,17,19-octaen-6-ol] the EC50 was over 1 µM.
With Nc1cc(C(F)(F)F)c2nc1-c1nnc(o1)[C@@](O)(C(F)(F)F)CCCCCC(CC1CC1)O2 (single isomer, unassigned) [Compound 47] the EC50 was under 0.5 µM.
In the case of CC1CCC(O)(C(F)(F)F)C2=NN=C(O2)c2nc(c(C(F)(F)F)cc2N)Oc2cc(F)cc1c2 (single isomer, unassigned) [Compound 33, 19-amino-12-fluoro-9-methyl-6,17-bis(trifluoromethyl)-15,22-dioxa-3,4,20-triazatetracyclo[14.3.1.12,5.110,14]docosa-1(20),2,4,10(21),11,13,16,18-octaen-6-ol], the EC50 is reported as under 0.5 µM.
Work on C[C@@H]1COCCC[C@](O)(C(F)(F)F)C2=NN=C(O2)c2nc(c(C(F)(F)F)cc2N)O1 [Compound 59, (6R,12R)-17-amino-12-methyl-6,15-bis(trifluoromethyl)-10,13,19-trioxa-3,4,18-triazatricyclo[12.3.1.12,5]nonadeca-1(18),2,4,14,16-pentaen-6-ol] yielded an EC50 of over 1 µM.
Compound Nc1cc(C(F)(F)F)c2nc1-c1nnc(o1)[C@@](O)(C(F)(F)F)CCCCC[S+]2[O-] (single isomer, unassigned) [Compound 24] has an EC50 of over 1 µM.
C[C@@H]1CC(O)CCC[C@](O)(C(F)(F)F)C2=NN=C(O2)c2nc(c(C(F)(F)F)cc2N)O1 (single isomer, unassigned) [Compound 46] was tested, and the EC50 was under 0.5 µM.
With Nc1cc(C(F)(F)F)c2nc1-c1nnc(o1)[C@@](O)(C(F)(F)F)CCCCCS2 [Compound 22, (6R)-16-amino-6,14-bis(trifluoromethyl)-18-oxa-12-thia-3,4,17-triazatricyclo[11.3.1.12,5]octadeca-1(17),2,4,13,15-pentaen-6-ol] the EC50 was under 0.5 µM.
In the case of C[C@@H]1CCCCC[C@@](O)(C(F)(F)F)C2=NN=C(O2)c2nc(c(C(F)(F)F)cc2N)O1 [Compound 12, (6S,12R)-17-Amino-12-methyl-6,15-bis(trifluoromethyl)-13,19-dioxa-3,4,18-triazatricyclo[12.3.1.12,5]nonadeca-1(18),2,4,14,16-pentaen-6-ol], the EC50 is reported as under 0.5 µM.
With C[C@@H]1CC2CC2CC[C@](O)(C(F)(F)F)C2=NN=C(O2)c2nc(c(C(F)(F)F)cc2N)O1 (single isomer, unassigned) [Compound 64] the EC50 was under 0.5 µM.
In the case of Nc1cc(C(F)(F)F)c2nc1-c1nnc(o1)[C@@](O)(C(F)(F)F)CCCCCCO2 [Compound 5, (6R)-17-amino-6,15-bis(trifluoromethyl)-13,19-dioxa-3,4,18-triazatricyclo[12.3.1.12,5]nonadeca-1(18),2,4,14,16-pentaen-6-ol], the EC50 is reported as under 0.5 µM.
C[C@@H]1CCC(O)CC[C@](O)(C(F)(F)F)C2=NN=C(O2)c2nc(c(C(F)(F)F)cc2N)O1 (single isomer, unassigned) [Compound 45] showed an EC50 of under 0.5 µM.
C[C@@H]1CCCCC(O)C(O)(C(F)(F)F)C2=NN=C(O2)c2nc(c(C(F)(F)F)cc2N)O1 (single isomer, unassigned) [Compound 62] was tested, and the EC50 was under 0.5 µM.
OC1(C(F)(F)F)CCCCCCOc2nc(ccc2C(F)(F)F)C2=NN=C1O2 (racemic) [Compound 1, 6,15-bis(trifluoromethyl)-13,19-dioxa-3,4,18-triazatricyclo[12.3.1.12,5]nonadeca-1(17),2,4,14(18),15-pentaen-6-ol] was tested, and the EC50 was over 1 µM.
For OC1(C(F)(F)F)CCCCCCOc2nc(ccc2C(F)(F)F)C2=NN=C1O2 (single isomer, unassigned) [Compound 3, 6,15-bis(trifluoromethyl)-13,19-dioxa-3,4,18-triazatricyclo[12.3.1.12,5]nonadeca-1(17),2,4,14(18),15-pentaen-6-ol], the EC50 was over 1 µM.
For CC1CCCCCC(O)(C(F)(F)F)C2=NN=C(O2)c2nc(c(C(F)(F)F)cc2N)O1 (stereo not shown) [Compound 7, 17-amino-12-methyl-6,15-bis(trifluoromethyl)-13,19-dioxa-3,4,18-triazatricyclo[12.3.1.12,5]nonadeca-1(18),2,4,14,16-pentaen-6-ol], the EC50 was under 0.5 µM.
For Nc1cc(C(F)(F)F)c2nc1-c1nnc(o1)[C@@](O)(C(F)(F)F)CCCCCCS2 [Compound 21, (6R)-17-Amino-6,15-bis(trifluoromethyl)-19-oxa-13-thia-3,4,18-triazatricyclo[12.3.1.12,5]nonadeca-1(18),2,4,14,16-pentaen-6-ol], the EC50 was under 0.5 µM.
For C[C@@H]1CC(=O)CCC[C@](O)(C(F)(F)F)C2=NN=C(O2)c2nc(c(C(F)(F)F)cc2N)O1 [Compound 25, (6R,12R)-17-amino-6-hydroxy-12-methyl-6,15-bis(trifluoromethyl)-13,19-dioxa-3,4,18-triazatricyclo[12.3.1.12,5]nonadeca-1(18),2,4,14,16-pentaen-10-one], the EC50 was over 1 µM.
[2H]C([2H])([2H])[C@@]1([2H])Oc2nc(c(N)cc2C(F)(F)F)C2=NN=C(O2)[C@@](O)(C(F)(F)F)CCCCC1([2H])[2H] [Compound 39, (6R,12R)-17-amino-11,11,12-trideuterio-12-(trideuteriomethyl)-6,15-bis(trifluoromethyl)-13,19-dioxa-3,4,18-triazatricyclo[12.3.1.12,5]nonadeca-1(18),2,4,14,16-pentaen-6-ol] gave an EC50 of under 0.5 µM.
With Nc1cc(C(F)(F)F)c2nc1-c1nnc(o1)[C@@](O)(C(F)(F)F)CCCCCC(CC1CC1)O2 (single isomer, unassigned) [Compound 48] the EC50 was under 0.5 µM.
Compound Nc1cc(C(F)(F)F)c2nc1-c1nnc(o1)[C@@](O)(C(F)(F)F)CCCCCCS2(=O)=O (single isomer, unassigned) [Compound 9] has an EC50 of under 0.5 µM.
Compound Nc1cc(C(F)(F)F)c2nc1-c1nnc(o1)C(O)(C(F)(F)F)CCCCc1ccccc1O2 (stereo not shown) [Compound 17, 21-amino-6,19-bis(trifluoromethyl)-17,23-dioxa-3,4,22-triazatetracyclo[16.3.1.12,5.011,16]tricosa-1(22),2,4,11(16),12,14,18,20-octaen-6-ol] has an EC50 of under 0.5 µM.
C[C@@H]1CCCCC(O)C(O)(C(F)(F)F)C2=NN=C(O2)c2nc(c(C(F)(F)F)cc2N)O1 (single isomer, unassigned) [Compound 57] was tested, and the EC50 was under 0.5 µM.
For CC(C)C1CCCCC[C@](O)(C(F)(F)F)C2=NN=C(O2)c2nc(c(C(F)(F)F)cc2N)O1 (single isomer, unassigned) [Compound 34], the EC50 was under 0.5 µM.
CC1CCCCCC(O)(C(F)(F)F)C2=NN=C(O2)c2nc(c(C(F)(F)F)cc2N)O1 (stereo not shown) [Compound 8, 17-amino-12-methyl-6,15-bis(trifluoromethyl)-13,19-dioxa-3,4,18-triazatricyclo[12.3.1.12,5]nonadeca-1(18),2,4,14,16-pentaen-6-ol] was tested, and the EC50 was under 0.5 µM.
In the case of Nc1cc(C(F)(F)F)c2nc1-c1nnc(o1)C(O)(C(F)(F)F)CCCCCS2(=O)=O (single isomer, unassigned) [Compound 15, 16-amino-12,12-dioxo-6,14-bis(trifluoromethyl)-18-oxa-12λ^6-thia-3,4,17-triazatricyclo[11.3.1.12,5]octadeca-1(17),2,4,13,15-pentaen-6-ol], the EC50 is reported as under 0.5 µM.
With C[C@@H]1CC(O)CCC[C@](O)(C(F)(F)F)C2=NN=C(O2)c2nc(c(C(F)(F)F)cc2N)O1 (single isomer, unassigned) [Compound 43] the EC50 was under 0.5 µM.
Compound Nc1cc(C(F)(F)F)c2nc1-c1nnc(o1)[C@@](O)(C(F)(F)F)CCCCC[C@H](CO)O2 [Compound 36, (6R,12R)-17-amino-12-(hydroxymethyl)-6,15-bis(trifluoromethyl)-13,19-dioxa-3,4,18-triazatricyclo[12.3.1.12,5]nonadeca-1(18),2,4,14,16-pentaen-6-ol] has an EC50 of under 0.5 µM.
C[C@H]1Oc2nc(c(N)cc2C(F)(F)F)C2=NN=C(O2)[C@@](O)(C(F)(F)F)CCCCC1O (single isomer, unassigned) [Compound 40] gave an EC50 of under 0.5 µM.
